Measurements reported in PubChem BioAssay (NCI).
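Cultured in 96-well plates, cells were exposed to test compound for 48 hours across five concentrations. At the TGI there is no net growth.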

Legend:
Test in all cases: NCI-60 cell line screen, 48 h
SK-MEL-28 melanoma = system: SK-MEL-28 melanoma
NCI-H460 lung = system: NCI-H460 lung
LOX IMVI melanoma = system: LOX IMVI melanoma
MDA-N = system: MDA-N
NCI/ADR-RES ovarian = system: NCI/ADR-RES ovarian
DU-145 prostate = system: DU-145 prostate
SF-295 CNS = system: SF-295 CNS
HL-60(TB) leukemia = system: HL-60(TB) leukemia
SF-268 CNS = system: SF-268 CNS
SW-620 colon = system: SW-620 colon
NCI-H226 lung = system: NCI-H226 lung
SN12C renal = system: SN12C renal
MALME-3M melanoma = system: MALME-3M melanoma
SNB-75 CNS = system: SNB-75 CNS
KM12 colon = system: KM12 colon
T-47D breast = system: T-47D breast
RXF 393 renal = system: RXF 393 renal
OVCAR-8 ovarian = system: OVCAR-8 ovarian
SK-MEL-2 melanoma = system: SK-MEL-2 melanoma
SK-MEL-5 melanoma = system: SK-MEL-5 melanoma
OVCAR-4 ovarian = system: OVCAR-4 ovarian
MDA-MB-231 breast = system: MDA-MB-231 breast
MOLT-4 leukemia = system: MOLT-4 leukemia
786-0 renal = system: 786-0 renal
HT29 colon = system: HT29 colon
HCT-15 colon = system: HCT-15 colon
HS 578T breast = system: HS 578T breast
U251 CNS = system: U251 CNS
BT-549 breast = system: BT-549 breast
HOP-92 NSCLC = system: HOP-92 NSCLC
A498 renal = system: A498 renal
HCC-2998 colon = system: HCC-2998 colon
CCRF-CEM leukemia = system: CCRF-CEM leukemia
UO-31 renal = system: UO-31 renal
HOP-62 NSCLC = system: HOP-62 NSCLC
OVCAR-5 ovarian = system: OVCAR-5 ovarian
SF-539 CNS = system: SF-539 CNS
NCI-H522 lung = system: NCI-H522 lung
IGROV1 ovarian = system: IGROV1 ovarian
OVCAR-3 ovarian = system: OVCAR-3 ovarian
HCT-116 colon = system: HCT-116 colon
MDA-MB-435 = system: MDA-MB-435
UACC-62 melanoma = system: UACC-62 melanoma
EKVX NSCLC = system: EKVX NSCLC
ACHN renal = system: ACHN renal
M14 melanoma = system: M14 melanoma
TK-10 renal = system: TK-10 renal
SK-OV-3 ovarian = system: SK-OV-3 ovarian
MCF7 breast = system: MCF7 breast
COLO 205 colon = system: COLO 205 colon
K-562 leukemia = system: K-562 leukemia
NCI-H23 lung = system: NCI-H23 lung
UACC-257 melanoma = system: UACC-257 melanoma
PC-3 prostate = system: PC-3 prostate
SNB-19 CNS = system: SNB-19 CNS
CAKI-1 renal = system: CAKI-1 renal
A549 NSCLC = system: A549 NSCLC
RPMI-8226 leukemia = system: RPMI-8226 leukemia

Which results are given for COc1c(-c2ccc3c(c2)OCO3)oc2cc3c(c(OC)c2c1=O)OCO3?
TGI (SK-MEL-28 melanoma): > 100 µM; TGI (NCI-H460 lung): 28 µM; TGI (LOX IMVI melanoma): 32.1 µM; TGI (MDA-N): 44.4 µM; TGI (NCI/ADR-RES ovarian): 85.5 µM; TGI (DU-145 prostate): > 100 µM; TGI (SF-295 CNS): 61.8 µM; TGI (HL-60(TB) leukemia): 4.1 µM; TGI (SF-268 CNS): 44.2 µM; TGI (SW-620 colon): > 100 µM; TGI (NCI-H226 lung): 42.5 µM; TGI (SN12C renal): 47.1 µM; TGI (MALME-3M melanoma): 67.6 µM; TGI (SNB-75 CNS): 44.9 µM; TGI (KM12 colon): 65.1 µM; TGI (T-47D breast): 36.7 µM; TGI (RXF 393 renal): 69.8 µM; TGI (OVCAR-8 ovarian): 42.4 µM; TGI (SK-MEL-2 melanoma): 56.9 µM; TGI (SK-MEL-5 melanoma): 35.5 µM; TGI (OVCAR-4 ovarian): 70.1 µM; TGI (MDA-MB-231 breast): > 100 µM; TGI (MOLT-4 leukemia): > 100 µM; TGI (786-0 renal): > 100 µM; TGI (HT29 colon): > 100 µM; TGI (HCT-15 colon): > 100 µM; TGI (HS 578T breast): 93.9 µM; TGI (U251 CNS): 36.7 µM; TGI (BT-549 breast): 46.6 µM; TGI (HOP-92 NSCLC): 79.6 µM; TGI (A498 renal): 50.3 µM; TGI (HCC-2998 colon): 87.4 µM; TGI (CCRF-CEM leukemia): > 100 µM; TGI (UO-31 renal): 71 µM; TGI (HOP-62 NSCLC): 34.9 µM; TGI (OVCAR-5 ovarian): > 100 µM; TGI (SF-539 CNS): 34.8 µM; TGI (NCI-H522 lung): 52.6 µM; TGI (IGROV1 ovarian): 55.1 µM; TGI (OVCAR-3 ovarian): 74.9 µM; TGI (HCT-116 colon): 39.3 µM; TGI (MDA-MB-435): 36.2 µM; TGI (UACC-62 melanoma): 64.1 µM; TGI (EKVX NSCLC): 57.1 µM; TGI (ACHN renal): 63 µM; TGI (M14 melanoma): > 100 µM; TGI (TK-10 renal): 80.4 µM; TGI (SK-OV-3 ovarian): 35.7 µM; TGI (MCF7 breast): 40.6 µM; TGI (COLO 205 colon): > 100 µM; TGI (K-562 leukemia): > 100 µM; TGI (NCI-H23 lung): 53.5 µM; TGI (UACC-257 melanoma): > 100 µM; TGI (PC-3 prostate): 58 µM; TGI (SNB-19 CNS): 43.4 µM; TGI (CAKI-1 renal): 62.4 µM; TGI (A549 NSCLC): 54 µM

Which TGI (SK-MEL-28 melanoma) does the source give for CN(C)CCCN1c2ccc3ccccc3c2Sc2cccc(Cl)c21 here?
Its TGI is 4.3 µM.

What about the TGI (NCI-H460 lung) of the same compound?
The TGI was 3.25 µM.

And the TGI (MDA-N)?
The TGI was 5.51 µM.

And the TGI (NCI/ADR-RES ovarian)?
The TGI was 23.4 µM.

What about the TGI (DU-145 prostate) of the same compound?
Its TGI is 14.8 µM.

And the TGI (SF-295 CNS)?
The TGI was 12.4 µM.

What about the TGI (HL-60(TB) leukemia) of the same compound?
Its TGI is 3.99 µM.

What about the TGI (SF-268 CNS) of the same compound?
The TGI was 32.5 µM.

And the TGI (SW-620 colon)?
The TGI was 4.33 µM.

What about the TGI (NCI-H226 lung) of the same compound?
The TGI was 18.7 µM.

And the TGI (SN12C renal)?
Its TGI is 20.3 µM.

And the TGI (MALME-3M melanoma)?
The TGI was 23 µM.

And the TGI (SNB-75 CNS)?
Its TGI is 12 µM.

And the TGI (KM12 colon)?
Its TGI is 4.28 µM.

What about the TGI (T-47D breast) of the same compound?
Its TGI is 7.17 µM.

What about the TGI (RXF 393 renal) of the same compound?
Its TGI is 10.4 µM.

And the TGI (OVCAR-8 ovarian)?
The TGI was 18 µM.

And the TGI (SK-MEL-2 melanoma)?
The TGI was 3.75 µM.

And the TGI (SK-MEL-5 melanoma)?
Its TGI is 9.59 µM.

What about the TGI (OVCAR-4 ovarian) of the same compound?
The TGI was 13.8 µM.

And the TGI (MDA-MB-231 breast)?
Its TGI is 8.07 µM.

And the TGI (MOLT-4 leukemia)?
The TGI was 4.75 µM.

What about the TGI (786-0 renal) of the same compound?
Its TGI is 8.84 µM.

And the TGI (HT29 colon)?
The TGI was 4.56 µM.

And the TGI (HCT-15 colon)?
The TGI was 22.7 µM.

And the TGI (HS 578T breast)?
Its TGI is 21.7 µM.

And the TGI (U251 CNS)?
The TGI was 4.72 µM.

What about the TGI (BT-549 breast) of the same compound?
The TGI was 42.7 µM.

And the TGI (HOP-92 NSCLC)?
Its TGI is 9.1 µM.

And the TGI (A498 renal)?
The TGI was 25.8 µM.

And the TGI (HCC-2998 colon)?
The TGI was 2.96 µM.

What about the TGI (CCRF-CEM leukemia) of the same compound?
The TGI was 3.52 µM.

And the TGI (UO-31 renal)?
Its TGI is 12 µM.

What about the TGI (HOP-62 NSCLC) of the same compound?
Its TGI is 9.32 µM.

What about the TGI (OVCAR-5 ovarian) of the same compound?
The TGI was 17.7 µM.

And the TGI (SF-539 CNS)?
The TGI was 20.7 µM.

And the TGI (NCI-H522 lung)?
Its TGI is 10.5 µM.

What about the TGI (IGROV1 ovarian) of the same compound?
Its TGI is 5.85 µM.

What about the TGI (OVCAR-3 ovarian) of the same compound?
The TGI was 10.6 µM.

What about the TGI (HCT-116 colon) of the same compound?
Its TGI is 14 µM.

What about the TGI (MDA-MB-435) of the same compound?
Its TGI is 3.88 µM.

What about the TGI (UACC-62 melanoma) of the same compound?
Its TGI is 4.82 µM.

And the TGI (EKVX NSCLC)?
The TGI was 13.5 µM.

What about the TGI (ACHN renal) of the same compound?
Its TGI is 12.6 µM.

And the TGI (M14 melanoma)?
The TGI was 3.58 µM.

And the TGI (TK-10 renal)?
Its TGI is 5.67 µM.

What about the TGI (SK-OV-3 ovarian) of the same compound?
The TGI was 26.4 µM.

What about the TGI (COLO 205 colon) of the same compound?
Its TGI is 3.51 µM.

What about the TGI (K-562 leukemia) of the same compound?
Its TGI is 3.77 µM.

What about the TGI (RPMI-8226 leukemia) of the same compound?
The TGI was 3.85 µM.

And the TGI (NCI-H23 lung)?
Its TGI is 35.4 µM.

And the TGI (UACC-257 melanoma)?
Its TGI is 3.1 µM.

And the TGI (PC-3 prostate)?
The TGI was 11.8 µM.

And the TGI (SNB-19 CNS)?
The TGI was 22.7 µM.

What about the TGI (CAKI-1 renal) of the same compound?
The TGI was 16.6 µM.

And the TGI (A549 NSCLC)?
The TGI was 19 µM.
